Assay results from US9382226B2, “Aldosterone synthase inhibitors” (Merck Sharp & Dohme Corp., priority 2010, dated 2016).

Legend:
human CYP11B2 = target: T1, human CYP11B2 (Homo sapiens, UniProt P19099); assay: V79-Human-CYP11B2 cell assay (aldosterone formation, HTRF); format: cell-based; conditions: V79 cells stably expressing human CYP11B2; substrate 125 nM 11-deoxycorticosterone; 3 hours
T1 construct: expressed in transfected cells; host or cells: V79 cells (clone V79-hCYP11B2-CLE9)
T1 sequence (P19099 25-503): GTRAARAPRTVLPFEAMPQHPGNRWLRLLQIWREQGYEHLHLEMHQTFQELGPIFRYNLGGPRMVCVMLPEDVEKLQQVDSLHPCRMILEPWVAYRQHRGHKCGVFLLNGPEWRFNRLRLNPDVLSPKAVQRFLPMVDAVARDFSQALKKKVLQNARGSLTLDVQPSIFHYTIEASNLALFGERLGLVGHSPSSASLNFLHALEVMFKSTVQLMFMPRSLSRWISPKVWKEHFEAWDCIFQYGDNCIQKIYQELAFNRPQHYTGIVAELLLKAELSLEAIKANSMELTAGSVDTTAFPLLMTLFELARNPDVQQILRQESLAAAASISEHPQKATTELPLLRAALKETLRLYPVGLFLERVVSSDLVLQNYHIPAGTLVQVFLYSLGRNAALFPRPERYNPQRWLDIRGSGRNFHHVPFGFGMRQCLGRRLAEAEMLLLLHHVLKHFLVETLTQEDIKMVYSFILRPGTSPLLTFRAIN
Protocol: (§1) Methods for V79-Human-CYP11B2 and V79-Human-CYP11B1 Assays: V79 cell lines stably expressing the either the human CYP11B2 or the human CYP11B1 enzyme were generated using a standard transfection protocol. V79 cells were transfected with plasmids pTriEx3-Hygro-hCyp11B2 or pTriEx3-Hygro-hCyp11B1 using Lipofectamine2000 reagent. V79 cells that stably express the human CYP11B2 or human CYP11B1 enzyme were selected for and maintained in DMEM supplemented with 10% FBS and 400 μg/mL hygromycin for ˜2 weeks. Single cell clones were generated by […] in DMEM supplemented with 10% FBS and 400 μg/mL hygromycin until single colonies were obtained. Clones V79-hCYP11B2-CLE9 and V79-hCYP11B1-8C7, were determined to produce the most aldosterone and cortisol, respectively, and were selected for inhibitor screening. For testing of inhibitors, cells were harvested at 80% confluency with 0.5% Trypsan-EDTA, washed once in PBS, and reconstituted in DMEM 0.1% BSA media at a cell concentration of 400,000 cells/mL. 25 μl of cells were added to a 384 well tissue culture treated plate and mixed with 0.25 μl of inhibitor or DMSO (1% final DMSO concentration) for 1 hour at 37° C., 5% CO2. After pre-incubation with inhibitor, the reaction was initiated by adding 5 μl of substrate (final concentration of 125 nM 11-deoxycorticosterone for the CYP11B2 assay or 250 nM 11-deoxycortisol for the CYP11B1 assay). The reaction was carried out for 3 hours at 37° C., 5% CO2 and was stopped by harvesting the supernatants. The amount of product in the supernatant (aldosterone for CYP11B2 assay and cortisol for the CYP11B1 assay) was measured using HTRF-based assay kit (Aldosterone HTRF-CisBio#64ALDPEB, Cortisol HTRF-CisBio #63IDC002-CORT). IC50's for the inhibitor were determined by plotting the amount of product formed against the concentration of inhibitor using sigmoidal dose-response curve (variable slope) fit in GraphPad.

human CYP11B1 = target: T2, human CYP11B1 (Homo sapiens, UniProt P15538); assay: V79-Human-CYP11B1 cell assay (cortisol formation, HTRF); format: cell-based; conditions: V79 cells stably expressing human CYP11B1; substrate 250 nM 11-deoxycortisol; 3 hours
T2 construct: expressed in transfected cells; host or cells: V79 cells (clone V79-hCYP11B1-8C7)
T2 sequence (P15538 25-503): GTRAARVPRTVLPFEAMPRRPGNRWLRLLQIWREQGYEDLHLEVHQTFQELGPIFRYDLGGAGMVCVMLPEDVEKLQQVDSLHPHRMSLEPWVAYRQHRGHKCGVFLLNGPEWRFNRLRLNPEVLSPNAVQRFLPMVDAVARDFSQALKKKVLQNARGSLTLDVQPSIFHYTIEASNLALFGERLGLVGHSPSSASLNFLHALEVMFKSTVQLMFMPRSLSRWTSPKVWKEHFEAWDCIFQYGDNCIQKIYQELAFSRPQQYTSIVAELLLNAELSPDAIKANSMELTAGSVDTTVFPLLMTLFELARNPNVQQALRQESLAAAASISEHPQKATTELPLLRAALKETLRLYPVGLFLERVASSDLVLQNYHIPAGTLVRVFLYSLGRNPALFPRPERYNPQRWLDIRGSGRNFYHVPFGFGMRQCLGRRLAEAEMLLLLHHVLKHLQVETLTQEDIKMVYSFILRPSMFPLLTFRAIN
Protocol: as §1, with “Clones V79-hCYP11B2-CLE9 and V79-hCYP11B1-8C7, were determined to produce the most aldosterone and cortisol, respectively, and were selected for inhibitor screening.” left out, “After pre-incubation with inhibitor, the reaction was initiated by adding 5 μl of substrate (final concentration of 125 nM 11-deoxycorticosterone for the CYP11B2 assay or 250 nM 11-deoxycortisol for the CYP11B1 assay).” left out

SMILES: Cc1cncc(-c2nc3cc(F)c(Cl)cc3n2C2CC2)c1 [Example 135, 6-chloro-1-cyclopropyl-5-fluoro-2-(5-methylpyridin-3-yl)-1H-benzimidazole]
- IC50 (human CYP11B2): 0.226 nM
- IC50 (human CYP11B1): 602 nM

SMILES: CC(C)(O)c1cncc(-c2nc3cc(F)c(F)cc3n2C2CC2)c1 [Example 38, 2-[5-(1-Cyclopropyl-5,6-difluoro-1H-benzimidazol-2-yl)pyridin-3-yl]propan-2-ol]
- IC50 (human CYP11B2): 0.3 nM
- IC50 (human CYP11B1): 42 nM

SMILES: Cc1ccncc1-c1nc2ccc(F)c(F)c2n1C1CC1 [Example 284, 1-cyclopropyl-6,7-difluoro-2-(4-methylpyridin-3-yl)-1H-benzimidazole]
- IC50 (human CYP11B2): 1.35 nM
- IC50 (human CYP11B1): 300 nM

SMILES: COc1cncc(-c2nc3ccc(C#N)cc3n2C2CC2)c1 [Example 76, 1-cyclopropyl-2-(5-methoxypyridin-3-yl)-1H-benzimidazole-6-carbonitrile]
- IC50 (human CYP11B2): 0.422 nM
- IC50 (human CYP11B1): 1750 nM

SMILES: Fc1cc2nc(-c3cccnc3)n(C3CC3)c2cc1Cl [Example 132, 6-chloro-1-cyclopropyl-5-fluoro-2-(pyridin-3-yl)-1H-benzimidazole]
- IC50 (human CYP11B2): 0.597 nM
- IC50 (human CYP11B1): 10000 nM

SMILES: COc1cncc(-c2nc3ccc(Cl)cc3n2C)c1 [Example 232, 6-chloro-2-(5-methoxypyridin-3-yl)-1-methyl-1H-benzimidazole]
- IC50 (human CYP11B2): 0.2 nM
- IC50 (human CYP11B1): 162 nM

SMILES: Fc1ccc2c(c1)nc(-c1cccnc1)n2C1CC1 [Example 17, 1-cyclopropyl-5-fluoro-2-(pyridin-3-yl)-1H-benzimidazole]
- IC50 (human CYP11B2): 28 nM
- IC50 (human CYP11B1): 3980 nM

SMILES: CCn1c(-c2cncc3ccccc23)nc2cc(F)ccc21 [Example 26, 4-(1-ethyl-5-fluoro-1H-benzimidazol-2-yl)isoquinoline]
- IC50 (human CYP11B2): 3.8 nM
- IC50 (human CYP11B1): 304 nM

SMILES: Fc1ccc2nc(-c3cncc4ccccc34)n(C3CC3)c2c1F [Example 279, 4-(1-cyclopropyl-6,7-difluoro-1H-benzimidazol-2-yl)isoquinoline]
- IC50 (human CYP11B2): 0.282 nM
- IC50 (human CYP11B1): 206 nM

SMILES: Cn1c(-c2cnccc2C(F)(F)F)nc2cc(F)c(Cl)cc21 [Example 335, 6-chloro-5-fluoro-1-methyl-2-[4-(trifluoromethyl)pyridin-3-yl]-1H-benzimidazole]
- IC50 (human CYP11B2): 2.85 nM
- IC50 (human CYP11B1): 563 nM

SMILES: Cn1c(-c2cncc3ccccc23)nc2cc(F)cc(F)c21 [Example 256, 4-(5,7-difluoro-1-methyl-1H-benzimidazol-2-yl)isoquinoline]
- IC50 (human CYP11B2): 0.346 nM
- IC50 (human CYP11B1): 490 nM

SMILES: Cc1cncc(-c2nc3ccc(F)c(F)c3n2C2CC2)c1C [Example 282, 1-cyclopropyl-2-(4,5-dimethylpyridin-3-yl)-6,7-difluoro-1H-benzimidazole]
- IC50 (human CYP11B2): 0.417 nM
- IC50 (human CYP11B1): 295 nM

SMILES: N#Cc1ccc2nc(-c3cccnc3)n(C3CC3)c2c1 [Example 75, 1-cyclopropyl-2-(pyridin-3-yl)-1H-benzo[d]imidazole-6-carbonitrile]
- IC50 (human CYP11B2): 1.23 nM
- IC50 (human CYP11B1): 374 nM

SMILES: Cn1c(-c2cccnc2)nc2cc(F)ccc21 [Example 4, 5-fluoro-1-methyl-2-(pyridin-3-yl)-1H-benzimidazole]
- IC50 (human CYP11B2): 26 nM
- IC50 (human CYP11B1): 4080 nM

SMILES: Cn1c(-c2cccnc2)nc2ccc(C#N)cc21 [Example 99, 1-methyl-2-(pyridin-3-yl)-1H-benzimidazole-6-carbonitrile]
- IC50 (human CYP11B2): 0.316 nM
- IC50 (human CYP11B1): 98 nM

SMILES: Fc1cc2nc(-c3cncc4ccccc34)n(C3CC3)c2cc1F [Example 32, 4-(1-cyclopropyl-5,6-difluoro-1H-benzimidazol-2-yl)isoquinoline]
- IC50 (human CYP11B2): 0.1 nM
- IC50 (human CYP11B1): 9.6 nM

SMILES: Fc1ccc2nc(-c3cncc4ccccc34)n(C3CC3)c2c1 [Example 16, 4-(1-cyclopropyl-6-fluoro-1H-benzimidazol-2-yl)isoquinoline]
- IC50 (human CYP11B2): 0.1 nM
- IC50 (human CYP11B1): 59.2 nM

SMILES: COc1c(C)cncc1-c1nc2cc(F)c(F)cc2n1C1CC1 [Example 226, 1-cyclopropyl-5,6-difluoro-2-(4-methoxy-5-methylpyridin-3-yl)-1H-benzimidazole]
- IC50 (human CYP11B2): 1.12 nM
- IC50 (human CYP11B1): 790 nM

SMILES: Fc1cncc(-c2nc3cc(F)c(Cl)cc3n2C2CC2)c1 [Example 129, 6-chloro-1-cyclopropyl-5-fluoro-2-(5-fluoropyridin-3-yl)-1H-benzimidazole]
- IC50 (human CYP11B2): 0.81 nM
- IC50 (human CYP11B1): 161 nM

SMILES: Fc1cc2nc(-c3cncc4ccccc34)n(C3CC3)c2cc1Cl [Example 131, 4-(6-chloro-1-cyclopropyl-5-fluoro-1H-benzimidazol-2-yl)isoquinoline]
- IC50 (human CYP11B2): 0.126 nM
- IC50 (human CYP11B1): 122 nM

SMILES: Fc1cncc(-c2nc3ccc(Br)cc3n2C2CC2)c1 [Example 172, 6-bromo-1-cyclopropyl-2-(5-fluoropyridin-3-yl)-1H-benzimidazole]
- IC50 (human CYP11B2): 3.55 nM
- IC50 (human CYP11B1): 946 nM

SMILES: Clc1ccc2nc(-c3cccnc3)n(C3CC3)c2c1 [Example 250, 6-chloro-1-cyclopropyl-2-(pyridin-3-yl)-1H-benzimidazole]
- IC50 (human CYP11B2): 1.59 nM
- IC50 (human CYP11B1): 425 nM

SMILES: Cc1cncc(-c2nc3cc(F)c(F)cc3n2C)c1 [Example 212, 5,6-difluoro-1-methyl-2-(5-methylpyridin-3-yl)-1H-benzimidazole]
- IC50 (human CYP11B2): 0.585 nM
- IC50 (human CYP11B1): 149 nM

SMILES: Fc1cncc(-c2nc3cc(F)c(F)cc3n2OCc2ccccc2)c1 [Example 373, 1-(benzyloxy)-5,6-difluoro-2-(5-fluoropyridin-3-yl)-1H-benzimidazole]
- IC50 (human CYP11B2): 0.5 nM
- IC50 (human CYP11B1): 71.5 nM

SMILES: COC(C)(C)c1cncc(-c2nc3cc(F)c(F)cc3n2C2CC2)c1 [Example 39, 1-cyclopropyl-5,6-difluoro-2-[5-(2-methoxypropan-2-yl)pyridin-3-yl]-1H-benzimidazole]
- IC50 (human CYP11B2): 0.3 nM
- IC50 (human CYP11B1): 3.4 nM

SMILES: COC(C)(C)c1cncc(-c2nc3ccc(F)cc3n2C2CC2)c1 [Example 51, 1-cyclopropyl-6-fluoro-2-[5-(2-methoxypropan-2-yl)pyridin-3-yl]-1H-benzimidazole]
- IC50 (human CYP11B2): 0.2 nM
- IC50 (human CYP11B1): 4.7 nM

SMILES: Cn1c(-c2cncc3ccccc23)nc2ccc(F)c(F)c21 [Example 267]
- IC50 (human CYP11B2): 0.151 nM
- IC50 (human CYP11B1): 206 nM
